Laboratory results taken from US9975918B2 (Van Andel Research Institute, priority 2013, dated 2018).
Numbering of substitutions follows the chain as printed.

How the values were obtained:
[1] = molecular target: T1, GR (Homo sapiens, UniProt P04150); experiment: MMTV-Luc transactivation (induction) reporter assay in AD293 cells; format: cell-based; settings: for effect of the 17α furoate on potency and efficacy, in words: relative to the corresponding compound without 17α furoate; for potency for GR, in words: compounds without 17α furoate; for potency compared with reference glucocorticoids, in words: MMTV-Luc, AD293 cells
T1 construct: expressed in transfected cells; host or cells: AD293 cells
T1 sequence (P04150 1-777): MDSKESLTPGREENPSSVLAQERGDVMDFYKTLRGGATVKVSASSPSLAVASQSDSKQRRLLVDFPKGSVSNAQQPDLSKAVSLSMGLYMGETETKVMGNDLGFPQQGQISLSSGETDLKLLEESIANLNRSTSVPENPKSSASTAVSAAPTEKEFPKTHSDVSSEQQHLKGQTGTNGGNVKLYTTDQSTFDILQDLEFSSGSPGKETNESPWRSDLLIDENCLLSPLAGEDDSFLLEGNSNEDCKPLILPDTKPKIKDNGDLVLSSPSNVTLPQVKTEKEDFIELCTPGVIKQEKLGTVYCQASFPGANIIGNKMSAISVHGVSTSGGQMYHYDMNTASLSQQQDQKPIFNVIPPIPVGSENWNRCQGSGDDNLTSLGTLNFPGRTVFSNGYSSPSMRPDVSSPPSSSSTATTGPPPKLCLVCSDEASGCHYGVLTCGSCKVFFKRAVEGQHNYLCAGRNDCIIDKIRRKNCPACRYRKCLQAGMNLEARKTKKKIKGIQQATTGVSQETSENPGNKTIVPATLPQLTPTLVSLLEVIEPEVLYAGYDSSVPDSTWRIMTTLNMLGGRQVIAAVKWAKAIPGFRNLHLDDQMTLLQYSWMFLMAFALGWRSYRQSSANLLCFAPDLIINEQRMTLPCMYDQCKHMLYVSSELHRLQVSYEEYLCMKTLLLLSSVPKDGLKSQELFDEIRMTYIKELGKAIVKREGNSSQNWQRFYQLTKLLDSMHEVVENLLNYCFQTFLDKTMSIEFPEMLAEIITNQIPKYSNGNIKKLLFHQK

[2] = molecular target: T2, GR Q642N (Homo sapiens, UniProt P04150, Q642N); experiment: MMTV-Luc transactivation assay with Q642N mutant; format: cell-based; settings: compared with wild type; up to saturation concentration
T2 construct: expressed in transfected cells; host or cells: AD293 cells
T2 sequence (P04150 1-777 Q642N): T1 sequence (P04150 1-777) with Q642N
Description: AD293 cells were split at 20,000/well in 24 well plate one day before transfection. For transactivation, 100 ng pHHLuc (MMTV-Luc) plasmid, 0.1 ng pRShGR together with 5 ng phRGtkRenilla were transfected by X-tremeGENE 9 (Roche) into AD293 cells per well. For transreperssion, 10 ng AP1-Luc, 100 ng pRShGR and 5 ng phRGtkRenilla were transfected into AD293 cells per well. One day after transfection, cells were induced by different treatment (steroids or vehicle) 16 hrs overnight.

[3] = molecular target: T1, GR; experiment: AP1-Luc transrepression reporter assay in AD293 cells; format: cell-based
[4] = when used at high concentration; cited from earlier work
[5] = tested on: GR Q642 mutations (Q642A, Q642F, Q642E, Q642K); experiment: MMTV-Luc transactivation assay with the other Q642 mutations; format: cell-based; settings: MF 1 nM, DEX 10 nM

CON(C)C(=O)[C@@]1(O)CCC2C3CCC4=Cc5c(cnn5-c5ccccc5)C[C@]4(C)C3[C@@H](O)C[C@@]21C (some centres unmarked) [VSG24]
activity in the MMTV reporter assay, in words [1]: almost no activity

CCCNC(=O)[C@@]1(OC(=O)c2ccco2)CCC2C3CCC4=Cc5c(cnn5-c5cccc(C(=O)NCc6ccccc6)c5)C[C@]4(C)C3[C@@H](O)C[C@@]21C (some centres unmarked) [VSG11]
effect of the 17α furoate on potency and efficacy, in words [1]: greatly increased both GR potency and efficacy

CCNC(=O)[C@@]1(OC(=O)c2ccco2)CCC2C3CCC4=Cc5c(cnn5-c5cccc(C(=O)NCc6ccccc6)c5)C[C@]4(C)C3[C@@H](O)C[C@@]21C (some centres unmarked) [VSG10]
effect of the 17α furoate on potency and efficacy, in words [1]: greatly increased both GR potency and efficacy

CCCNC(=O)[C@@]1(O)CCC2C3CCC4=Cc5c(cnn5-c5cccc(C(=O)NCc6ccccc6)c5)C[C@]4(C)C3[C@@H](O)C[C@@]21C (some centres unmarked) [VSG03]
potency for GR, in words [1]: relatively low potency

C[C@]12Cc3cnn(-c4cccc(C(=O)NCc5ccccc5)c4)c3C=C1CCC1C2[C@@H](O)C[C@@]2(C)C1CC[C@]2(OC(=O)c1ccco1)C(=O)NCc1ccccc1 (some centres unmarked) [VSG14]
effect of the 17α furoate on potency and efficacy, in words [1]: greatly increased both GR potency and efficacy

C[C@]12C=CC(=O)C=C1CC[C@@H]1[C@@H]2[C@@H](O)C[C@@]2(C)[C@H]1CC[C@]2(O)C(=O)CO [prednisolone, reference compound]
leftward shift of the cortisol dose-response curve ([1]; transactivation, relative to cortisol): about 5 fold

C[C@]12CCC(=O)C=C1CC[C@@H]1[C@@H]2[C@@H](O)C[C@@]2(C)[C@H]1CC[C@]2(O)C(=O)CO [cortisol, Cortisol]
full dose-response curve of Q642N, in words [2]: inactive
potency compared with DEX, transrepression, in words [3]: much weaker than DEX
efficacy as % of the efficacy of DEX, transactivation ([1]; at its saturation concentration (10 μM)): 80%

CCNC(=O)[C@@]1(O)CCC2C3CCC4=Cc5c(cnn5-c5cccc(C(=O)NCc6ccccc6)c5)C[C@]4(C)C3[C@@H](O)C[C@@]21C (some centres unmarked) [VSG02]
potency for GR, in words [1]: relatively low potency

CC1=C[C@@H]2[C@H]([C@@H](O)C[C@@]3(C)[C@H]2C[C@@H](C)[C@]3(O)C(=O)CO)[C@@]2(C)Cc3cnn(-c4ccccc4)c3C=C12 [DAC, deacylcortivazol]
cytotoxicity, in words [4]: strong cytotoxicity

CCC(=O)O[C@]1(C(=O)NCc2ccccc2)CCC2C3CCC4=Cc5c(cnn5-c5cccc(C(=O)NCc6ccccc6)c5)C[C@]4(C)C3[C@@H](O)C[C@@]21C (some centres unmarked) [VSG15]
potency for GR, in words [1]: relatively low potency

CON(C)C(=O)[C@@]1(OC(=O)c2ccco2)CCC2C3CCC4=Cc5c(cnn5-c5ccccc5)C[C@]4(C)C3[C@@H](O)C[C@@]21C (some centres unmarked) [VSG24F]
potency compared with reference glucocorticoids, in words [1]: better than those of DEX and DAC

CON(C)C(=O)[C@@]1(OC(=O)c2ccco2)CCC2C3CCC4=Cc5c(cnn5-c5ccccc5)C[C@]4(C)C3[C@@H](O)C[C@@]21C (some centres unmarked) [VSG22]
potency compared with reference glucocorticoids, in words [1]: slightly weaker than MF
EC50 change on replacement of the 17α hydroxyl group by a furoate ester ([1]; VSG22 vs VSG24): greater than 1000 fold
effect of the 17α furoate on potency and efficacy, in words [1]: greatly increased both potency and efficacy

C[C@@H]1C[C@H]2[C@@H]3CCC4=CC(=O)C=C[C@]4(C)[C@@]3(Cl)[C@@H](O)C[C@]2(C)[C@@]1(OC(=O)c1ccco1)C(=O)CCl [MF, Mometasone Furoate]
transactivation activity at sub-saturated concentration, in words [5]: loss of most of the activity
